Measurements taken from US12702686B2, “Antimicrobial therapy” (priority 2021, dated 2026).
Where no end group is shown, it is not given here.

Key:
[1] = tested on: Primary normal human keratinocytes (NHEK); assay: LDH release cytotoxicity in keratinocytes; format: cell-based; details: 24 h, increasing concentrations
Procedure: NHEKs (ThermoFisher) were cultured in EpiLife medium containing 60 μM CaCl2) (ThermoFisher) supplemented with 1× human keratinocyte growth supplement (ThermoFisher) and 1× Antibiotic Antimycotic (Millipore Sigma) at 37° C., 5% CO 2. All experiments performed on NHEKs were between passages 3 and 5 with cells at 70-80% confluency.

S. pseudintermedius ST71 = assay: Minimum inhibitory concentration, broth micro dilution; format: cell-based, Staphylococcus pseudintermedius; details: synthetic peptides, 18 h incubation
Procedure: MIC values were determined using a broth micro dilution method. Bacterial cells were grown to mid-late log phase, to an OD600 nm value of roughly 1.0 for each bacterial strain and then normalized to 1×10^7 CFU/mL. The PSMβ peptides or butanol extracts were dissolved in DMSO to a stock concentration of 10 mg/ml. The stock concentrations of antibiotics that were water-soluble were prepared with H2O or 100% ethanol if water-insoluble. The 1×10^7 CFU/ml bacterial cultures (10 μl) were aliquoted into 96-well microtiter plates and mixed with 95 μL of media with or without 2-fold dilutions of the conditioned supernatant, PSMβ peptides, butanol extracts or antibiotics and incubated for 16-18 h at 30° C. with shaking at 250 rpm. Growth inhibition was determined by measuring the OD600 nm readings of each well using a microplate reader (SpectraMax iD3, Molecular Devices). The MIC of each bacterial strain was determined by the lowest peptide concentration that inhibited more than 80% bacterial growth.

Compound	cytotoxicity by LDH release [1]	concentration at which S. pseudintermedius growth was inhibited (S. pseudintermedius ST71)
CC[C@H](C)[C@H](NC(=O)[C@H](Cc1c[nH]c2ccccc12)NC(=O)[C@H](CCCCN)NC(=O)[C@@H](NC(=O)[C@H](CC(C)C)NC(=O)[C@H](CC(=O)O)NC(=O)CNC(=O)[C@@H](NC(=O)[C@@H](NC(=O)[C@H](CO)NC(=O)[C@@H](NC(=O)[C@@H](NC(=O)[C@H](CC(=O)O)NC(=O)[C@H](C)NC(=O)[C@H](C)NC(=O)[C@H](CCSC)NC=O)[C@@H](C)CC)[C@@H](C)CC)[C@@H](C)O)[C@@H](C)CC)C(C)C)C(=O)N[C@H](C(=O)N[C@@H](CC(=O)O)C(=O)N[C@H](C(=O)N[C@H](C(=O)N[C@@H](CC(N)=O)C(=O)N[C@@H](CCCCN)C(=O)N[C@@H](Cc1ccccc1)C(=O)N[C@@H](CCCCN)C(=O)N[C@@H](CCCCN)C(=O)O)C(C)C)[C@@H](C)O)[C@@H](C)CC [PSMγ]	highly cytotoxic	
Non-Formyl-MSKLTRVIVTSIMTVGFLTATLGLTAGNADAKLEGNGTLSQKQYQRLASQQF (H-MSKLTRVIVTSIMTVGFLTATLGLTAGNADAKLEGNGTLSQKQYQRLASQQF; listed as Staphylococcus felis) [EF-hand domain-containing peptide]		> 200 µg/mL
